We go through one compound from patent US6897237B2, “MMP-12 inhibitors” (Shionogi & Co. Ltd., priority 2000, dated 2005).

In one test the target is T1, MMP-1 (Homo sapiens, UniProt P03956).
T1 construct: purchased Yagai
T1 sequence (P03956 100-469): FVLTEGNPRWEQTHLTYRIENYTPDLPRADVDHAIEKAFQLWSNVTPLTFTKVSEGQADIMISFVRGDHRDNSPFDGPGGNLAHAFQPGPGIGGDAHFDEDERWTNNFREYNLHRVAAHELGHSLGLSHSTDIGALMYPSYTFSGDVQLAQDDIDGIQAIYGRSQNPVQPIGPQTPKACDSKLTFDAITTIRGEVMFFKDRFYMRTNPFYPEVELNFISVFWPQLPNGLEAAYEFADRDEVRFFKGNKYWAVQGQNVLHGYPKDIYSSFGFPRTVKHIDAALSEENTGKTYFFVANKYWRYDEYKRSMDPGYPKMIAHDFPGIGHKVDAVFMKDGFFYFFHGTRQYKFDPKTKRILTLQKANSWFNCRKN
The test is described as follows: Assay for inhibitory activities on MMPs (fluorogenic peptide substrate): MMP-1. It counts as biochemical. Particulars: substrate MOCAc-Pro-Leu-Gly-Leu-A2Pr(DNP)-Ala-Arg-NH2. The method, then: MMP-1 was purchased from Yagai.
(§1) The enzymatic activity on MMPs was analyzed by the method described in “C. Graham Knight, Frances Willenbrock and Gillian Murphy: A novel coumarin-labelled peptide for sensitive continuous assays of the matrix metalloproteinases: FEBS LETT., 296, (1992), 263-266”. The substrate: MOCAc-Pro-Leu-Gly-Leu-A2Pr(DNP)-Ala-Arg-NH2 was purchased from Peptide Institute, Inc., Osaka, Japan. The measurement of the inhibitory activities (IC50) was carried out by the following four methods;
(§2) (A) Reaction with substrate, enzyme (MMPs) and inhibitor
(§3) (B) Reaction with substrate and inhibitor, without enzyme
(§4) (C) Reaction with substrate and enzyme (MMPs), without inhibitor
(§5) (D) Reaction with substrate only
(§6) IC50 values were calculated by using the following formula and each fluorescence values of above four methods (A to D).
(§7) % inhibition={1−(A−B)/(C−D)}×100
(§8) IC50 means the concentration required to inhibit 50% of the enzyme activity.

A further test addresses T2, MMP-9 (Homo sapiens, UniProt P14780).
T2 construct: endogenous in cells; host or cells: HT1080 human fibrosarcoma cells, TPA-stimulated; purified in house from conditioned medium
The test is described as follows: Assay for inhibitory activities on MMPs (fluorogenic peptide substrate): MMP-9. Particulars: substrate MOCAc-Pro-Leu-Gly-Leu-A2Pr(DNP)-Ala-Arg-NH2. It counts as biochemical.
Text: MMP-9 was isolated and purified by using a combination of procedures described in previous reports as follows. Yasunori Okada, Yukio Gonoji, Katsumi Naka, Katsuro Tomita, Isao Nakanishi, Kazushi Iwata, Kyoko Yamashita, and Taro Hayakawa: Matrix metalloproteinase 9 (92-kDa gelatinase/type IV collagenase) from HT1080 human fibrosarcoma cells. Purification and activation of the precursor and enzymic properties. J. Biol. Chem., 267 (1.992) 21712-21719. Yasunori Okada, Tatsuhisa Morodomi, Jan J, Enghild, Ko Suzuki, Atsushi Yasui, Isao Nakanishi, Guy Salvesen and Hideaki Nagase: Matrix metalloproteinase 2 from human rheumatoid synovial fibroblasts. Purification and activation of the precursor and enzymic properties. Eur. J. Biochem. 194 (1990) 721-730. Robin V Ward, Rosalind M Hembry, John J Reynolds and Gillian Murphy: The purification of tissue inhibitor of metalloproteinase-2 from its 72 kDa progelatinase complex. Biochem. J. 278 (1991) 179-187.
Briefly, human fibrosarcoma ATCC HT1080 cell line was cultured to confluent in Dulbecco's Modified Medium (DMEM) containing 10% fetal-calf serum at 37° C. for 48 hours. Subsequently, the medium of confluent culture was changed to serum-free DMEM medium. To obtain MMP-9, Phorbol-12-myristate-13-acetate (TPA) must be added to this serum-free DMEM medium at a concentration of 50 ng/ml. The TPA treated medium was centrifuged at 3000 rpm for 15 min and the supernatant was concentrated to 450 ml by a Toyo-Roshi UP-20 apparatus with an ultrafiltration membrane. Then, proMMP-9 in this concentrated solution was purified by using columns of Gelatin-Sepharose and Concanavalin A-Sepharose. The pool containing proMMP-9 was dialyzed, concentrated (Toyo-Roshi UP-20) and applied to columns of Sephacryl S-200 and Green A matrix for the separation from TIMPs. The obtained proMMP-9 fraction was activated by TPCK-Trypsin (final conc. […] reaction mix.).
as §1, §2, §3, §4, §5, §6, §7, §8

T2 sequence (P14780 107-707 limits assumed): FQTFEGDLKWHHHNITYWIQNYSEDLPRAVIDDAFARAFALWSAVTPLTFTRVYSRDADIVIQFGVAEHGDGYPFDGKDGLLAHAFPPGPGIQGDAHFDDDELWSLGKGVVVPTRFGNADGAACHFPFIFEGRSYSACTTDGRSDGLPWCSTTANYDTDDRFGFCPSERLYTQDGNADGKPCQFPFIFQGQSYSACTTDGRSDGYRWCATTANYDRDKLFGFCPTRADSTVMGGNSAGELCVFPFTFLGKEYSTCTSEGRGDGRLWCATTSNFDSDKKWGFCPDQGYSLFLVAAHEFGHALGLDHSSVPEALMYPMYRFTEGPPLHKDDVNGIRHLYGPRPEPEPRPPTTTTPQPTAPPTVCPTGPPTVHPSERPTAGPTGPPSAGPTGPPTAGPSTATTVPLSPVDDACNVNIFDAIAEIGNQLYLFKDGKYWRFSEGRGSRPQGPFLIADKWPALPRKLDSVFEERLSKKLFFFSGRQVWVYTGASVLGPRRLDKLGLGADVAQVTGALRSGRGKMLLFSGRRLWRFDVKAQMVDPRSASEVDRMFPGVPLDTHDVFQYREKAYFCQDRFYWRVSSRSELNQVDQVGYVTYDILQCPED

For `C[C@@H](NS(=O)(=O)c1ccc(C#Cc2ccc3ccccc3c2)s1)C(=O)O` [Compound B-6], the figures for the IC50 against MMP-1 and on MMP-9 were over 10 µM and 0.84 µM, respectively.

What is called IC50 is the midpoint of a concentration-inhibition curve.
